Results taken from PMC7496286, “The Selectivity of Fosfosal for STAT5b over STAT5a is Mediated by Arg566 in the Linker Domain” (Chembiochem, 2020).
Numbering of substitutions follows the chain as printed.

Assays:
STAT5a SH2 domain = molecular target: T1, STAT5a SH2 domain (Homo sapiens, UniProt P42229); assay: FP-based competitive binding assay, wild-type STAT5a
T1 construct: His; made in house
T1 sequence (P42229 1-794): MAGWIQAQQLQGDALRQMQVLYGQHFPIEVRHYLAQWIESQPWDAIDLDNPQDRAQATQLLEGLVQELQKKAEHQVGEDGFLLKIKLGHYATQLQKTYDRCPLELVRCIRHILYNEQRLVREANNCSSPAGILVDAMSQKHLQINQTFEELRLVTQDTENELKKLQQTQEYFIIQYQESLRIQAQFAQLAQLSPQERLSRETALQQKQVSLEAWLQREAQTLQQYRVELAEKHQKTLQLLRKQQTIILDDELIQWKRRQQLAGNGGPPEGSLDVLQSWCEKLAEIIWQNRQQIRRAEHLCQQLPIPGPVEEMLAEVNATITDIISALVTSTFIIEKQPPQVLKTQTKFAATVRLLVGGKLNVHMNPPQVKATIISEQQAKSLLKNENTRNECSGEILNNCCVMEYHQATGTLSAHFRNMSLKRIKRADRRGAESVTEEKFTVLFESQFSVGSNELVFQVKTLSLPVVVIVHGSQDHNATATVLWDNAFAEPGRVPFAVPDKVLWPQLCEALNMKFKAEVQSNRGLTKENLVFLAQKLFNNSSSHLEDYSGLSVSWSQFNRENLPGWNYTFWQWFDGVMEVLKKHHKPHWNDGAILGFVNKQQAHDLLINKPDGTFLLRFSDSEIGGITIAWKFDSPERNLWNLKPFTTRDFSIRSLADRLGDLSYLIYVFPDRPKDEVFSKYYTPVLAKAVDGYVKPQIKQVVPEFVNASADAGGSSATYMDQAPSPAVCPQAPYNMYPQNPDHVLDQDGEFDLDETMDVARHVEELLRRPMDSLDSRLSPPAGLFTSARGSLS
Method: (§1) Fluorescence polarization assays
(§2) The ability of test compounds to displace 5-carboxyfluorescein-GY(PO3H2)LVLDKW (final concentration: 10 nM) from the SH2 domain of STAT5a/b proteins was analyzed. Proteins […]
(§3) was applied in dilution series comprising the following concentrations: 0.024 – 200 µM […]
(§4) and 0.146 – 600 µM (STAT5b Arg566Glu), respectively. The assays were performed in buffer containing 10 mM Tris, 50 mM NaCl, 1 mM DTT, 1 mM EDTA and 0.1% (v/v) NP-40. Fosfosal was dissolved in DMSO. STAT5a/b proteins and fosfosal were incubated at room temperature for 1 h before adding peptide. Samples were transferred to 384-well microtiter plates and fluorescence polarization was read after a further 1 h incubation time. All measurements were performed in triplicate (n=3), except for STAT5b (n=6) and STAT5a Trp566Arg (n=4). Percent binding was calculated based on a logarithmic curve fit using OriginPro 8G software. IC50 values were converted to Ki values using the published equation.[4] […]
(§5) [4] Z. Nikolovska-Coleska, R. Wang, X. Fang, H. Pan, Y. Tomita, P. Li, P. P. Roller, K.
(§6) Krajewski, N. G. Saito, J. A. Stuckey, S. Wang, Anal. Biochem. 2004, 332, 261-273.

STAT5a Trp566Arg = molecular target: T2, STAT5a Trp566Arg (Homo sapiens, UniProt P42229, W566R); assay: FP-based competitive binding assay, STAT5a Trp566Arg
T2 construct: His; made in house
T2 sequence (P42229 1-794 W566R): T1 sequence (P42229 1-794) with W566R
Method: as §1, §2, §3, §4, §5, §6

[1] = molecular target: T3, STAT5b-6M (Gln636Pro/Met639Asn/Phe640Leu/Met644Lys/Asn664Ser/Tyr679Phe) (Homo sapiens, UniProt P51692, F640L/M639N/M644K/N664S/Q636P/Y679F); assay: FP-based competitive binding assay, STAT5b-6M
T3 construct: His; made in house
T3 sequence (P51692 1-787 Q636P/M639N/F640L/M644K/N664S/Y679F): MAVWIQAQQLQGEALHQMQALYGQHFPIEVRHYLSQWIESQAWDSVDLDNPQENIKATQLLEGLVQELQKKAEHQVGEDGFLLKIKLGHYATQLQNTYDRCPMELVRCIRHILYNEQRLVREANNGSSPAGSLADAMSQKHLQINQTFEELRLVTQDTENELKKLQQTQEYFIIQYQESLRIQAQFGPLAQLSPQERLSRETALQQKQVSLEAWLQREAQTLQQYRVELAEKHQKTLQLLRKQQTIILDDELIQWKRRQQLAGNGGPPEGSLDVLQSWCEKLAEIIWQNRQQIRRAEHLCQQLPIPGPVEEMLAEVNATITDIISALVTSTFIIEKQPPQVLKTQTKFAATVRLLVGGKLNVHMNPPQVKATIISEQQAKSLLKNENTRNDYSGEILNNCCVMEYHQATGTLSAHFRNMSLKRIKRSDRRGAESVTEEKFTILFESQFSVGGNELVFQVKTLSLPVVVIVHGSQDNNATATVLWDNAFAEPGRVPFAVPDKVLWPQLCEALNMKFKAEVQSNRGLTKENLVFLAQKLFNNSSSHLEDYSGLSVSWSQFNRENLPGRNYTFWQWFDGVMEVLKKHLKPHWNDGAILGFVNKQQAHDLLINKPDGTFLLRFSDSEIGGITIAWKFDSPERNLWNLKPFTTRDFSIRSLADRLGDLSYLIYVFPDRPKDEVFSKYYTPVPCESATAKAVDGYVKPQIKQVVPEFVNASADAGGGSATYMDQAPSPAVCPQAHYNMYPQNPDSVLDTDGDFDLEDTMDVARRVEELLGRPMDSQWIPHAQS
Method: as §1, §2, §3, §4, §5, §6

Structure (SMILES) | Kd (STAT5a SH2 domain) | Kd (STAT5a Trp566Arg) | Kd [1] | IC50 (STAT5a SH2 domain; wild-type STAT5a) | Ki (STAT5a SH2 domain; wild-type STAT5a, Ki calculated from IC50 with published equation) | IC50 (STAT5a Trp566Arg; STAT5a Trp566Arg) | Ki (STAT5a Trp566Arg; STAT5a Trp566Arg, Ki calculated from IC50, n=4) | increase of activity against STAT5a Trp566Arg compared to wild type STAT5a (STAT5a Trp566Arg; ratio of Ki values) | IC50 ([1]; STAT5b-6M) | Ki ([1]; STAT5b-6M, Ki calculated from IC50) | increase of activity against STAT5b-6M compared to wild type STAT5b ([1]; ratio of Ki values)
CC(C)C[C@H](NC(=O)[C@H](Cc1ccc(OP(=O)(O)O)cc1)NC(=O)CNC(=O)c1ccc2c(c1)C(=O)OC21c2ccc(O)cc2Oc2cc(O)ccc21)C(=O)N[C@H](C(=O)N[C@@H](CC(C)C)C(=O)N[C@@H](CC(=O)O)C(=O)N[C@@H](CCCCN)C(=O)N[C@@H](Cc1c[nH]c2ccccc12)C(=O)O)C(C)C [5-carboxyfluorescein-GY(PO3H2)LVLDKW] | 0.147 µM | 0.043 µM | 0.085 µM | – | – | – | – | – | – | – | –
O=C(O)c1ccccc1OP(=O)(O)O [fosfosal, O‐phosphorylated salicylic acid] | – | – | – | 299 ± 17 µM | 148 ± 9 µM | 21 ± 1.5 µM | 10.2 ± 0.7 µM | 14 fold | 21.3 ± 1.2 µM | 10.7 ± 0.6 µM | ~3 fold
